Experimental data from patent US9504675B2, “Alpha-ketoheterocycles and methods of making and using” (The Scripps Research Institute, priority 2011, dated 2016).
Read-outs that look alike come from different tables or passages of the source. One block for each compound: values may come before it.

Assays:
[1] = target: T1, recombinant rat FAAH (rFAAH) (Rattus norvegicus, UniProt P97612); assay: Enzyme assay: inhibition of purified recombinant rat FAAH, 14C-oleamide hydrolysis, Ki by Dixon plot; format: biochemical; settings: for potency of more active (S)-enantiomer over (R)-enantiomer: ratio of FAAH inhibition between enantiomers
T1 construct: The truncated rat FAAH (rFAAH) was expressed in E. coli and purified; made in house; host or cells: Escherichia coli
T1 sequence (P97612 30-579 limits assumed): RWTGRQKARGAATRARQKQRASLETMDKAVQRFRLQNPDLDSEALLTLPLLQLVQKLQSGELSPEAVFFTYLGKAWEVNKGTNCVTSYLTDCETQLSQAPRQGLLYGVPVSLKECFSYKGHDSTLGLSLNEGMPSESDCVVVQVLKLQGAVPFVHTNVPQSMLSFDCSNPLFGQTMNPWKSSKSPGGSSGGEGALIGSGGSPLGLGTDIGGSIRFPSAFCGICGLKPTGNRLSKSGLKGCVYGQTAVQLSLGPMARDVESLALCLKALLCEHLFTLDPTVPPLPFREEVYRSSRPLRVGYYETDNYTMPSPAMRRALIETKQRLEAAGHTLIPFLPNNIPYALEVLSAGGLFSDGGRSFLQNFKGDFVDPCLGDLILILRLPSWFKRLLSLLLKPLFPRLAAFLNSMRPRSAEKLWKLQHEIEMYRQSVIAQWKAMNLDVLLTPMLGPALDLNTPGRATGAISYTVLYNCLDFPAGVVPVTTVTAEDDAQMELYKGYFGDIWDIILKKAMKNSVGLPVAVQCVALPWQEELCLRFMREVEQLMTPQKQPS
Procedure: Enzyme assays were performed at 20-23° C. with purified recombinant rat FAAH expressed in Escherichia coli or with solubilized COS-7 membrane extracts from cells transiently transfected with human FAAH cDNA (where specifically indicated) in a buffer of 125 mM Tris/1 mM EDTA/0.2% glycerol/0.02% Triton X-100/0.4 mM Hepes, pH 9.0.
^14C-labeled oleamide was prepared from ^14C-labeled oleic acid. The truncated rat FAAH (rFAAH) was expressed in E. coli and purified. The purified recombinant rFAAH was used in the inhibition assays unless otherwise indicated. The full-length human FAAH (hFAAH) was expressed in COS-7 cells as described, and the lysate of hFAAH-transfected COS-7 cells was used in the inhibition assays where explicitly indicated.
The inhibition assays were performed as follows. […] The enzyme reaction was terminated by transferring 20 μL of the reaction mixture to 500 μL of 0.1 N HCl at three different time points. The ^14C-labeled oleamide (substrate) and oleic acid (product) were extracted with EtOAc and analyzed by TLC as detailed. The Ki of the inhibitor was calculated using a Dixon plot as described (standard deviations are provided in the Supporting Information tables).

[2] = tested on: endogenous levels of FAAH substrates AEA, PEA, OEA and of 2-AG, AA; assay: In vivo pharmacodynamic studies: brain and liver lipid levels after inhibitor treatment (LC-MS); design: species or system mouse (C57BL/6J); settings: Table 6, 30 mg/kg i.p., 1 h, single mouse; for Brain 2-AG (fold increase) / Brain AA (fold increase) / Brain AEA (fold increase) / Brain PEA (fold increase): vs vehicle
Procedure: This includes monitoring the effects of the inhibitors on the endogenous levels of the FAAH substrates anandamide (AEA, N-arachidonoyl ethanolamine), N-oleoyl ethanolamine (OEA), and N-palmitoyl ethanolamine (PEA), as well as the key lipids 2-arachidonoylglycerol (2-AG) and arachidonic acid (AA) that are not endogenous substrates for FAAH.
Inhibitors were prepared as a saline-emulphor emulsion for intraperitoneal (i.p.) administration by vortexing, sonicating, and gently heating neat compound directly into an 18:1:1 v/v/v solution of saline:ethanol:emulphor, or as a homogeneous PEG solution for oral administration (p.o.) by vortexing, sonicating, and gently heating neat compound directly into PEG300 (Fluka). Male C57BL/6J mice (<6 months old, 20-28 g) were administered inhibitors in saline-emulphor emulsion or an 18:1:1 v/v/v saline:emulphor:ethanol vehicle i.p. at a volume of 10 μL/g weight, or alternatively inhibitors in PEG300 or a PEG300 vehicle p.o. at a volume of 4 μL/g weight. After the indicated amount of time, mice were anesthetized with isofluorane and killed by decapitation. Total brains (˜400 mg) and a portion of the liver (˜100 mg) were removed and flash frozen in liquid N2.
Tissue was weighed and subsequently Dounce homogenized in 2:1:1 v/v/v CHCl3:MeOH:Tris pH 8.0 (8 mL) containing standards for lipids (50 pmol d4-PEA, 2 pmol d4-AEA, 0.5 nmol ds-2-AG, and 10 nmol pentadecanoic acid). The mixture was vortexed and then centrifuged (1,400×g, 10 min). The organic layer was removed, dried under a stream of N2, resolubilized in 2:1 v/v CHCl3:MeOH (120 μL), and 10 μL of this resolubilized lipid was injected onto an Agilent G6410B QQQ instrument. […] Mobile phase A was composed of a 95:5 v/v H2O:MeOH, and mobile phase B was composed of a 65:35:5 v/v/v i-PrOH:MeOH:H2O. 0.1% Formic acid or 0.1% ammonium hydroxide was included to assist in ion formation in positive and negative ionization mode, respectively. The flow rate for each run started at 0.1 mL/min with 0% B. At 5 min, the solvent was immediately changed to 60% B with a flow rate of 0.4 mL/min and increased linearly to 100% B over 10 min. […] MS analysis was performed with an electrospray ionization (ESI) source. […] For negative polarity, the analysis was performed in MS2 scan mode from 100-1000 m/z. The capillary was set to 4 kV, the fragmentor was set to 100 V, and the delta EMV was set to 0. Lipids were quantified by measuring the area under the peak in comparison to the standards.

[3] = Ki, Table 2, (S)-enantiomer, 1,2,3,4-tetrahydronaphthalene C2 acyl side chain
[4] = Ki, Table 3, tentatively assigned (S)-enantiomer, indane C2 acyl side chain
[5] = Ki, Table 4, (S)-enantiomer, additional FAAH inhibitors

Structure (SMILES): O=C(c1ncco1)C1CCc2cc(OCc3ccccc3)ccc2C1 (single isomer, unassigned) [(S)-15, (6-(Benzyloxy)-1,2,3,4-tetrahydronaphthalen-2-yl)(oxazol-2-yl)methanone]
Ki [1, 3]: 6.1 nM

Structure (SMILES): COC(=O)c1cnc(C(=O)C2CCc3cc(OCc4ccccc4)ccc3C2)o1 (single isomer, unassigned) [(S)-16, Methyl 2-(6-(Benzyloxy)-1,2,3,4-tetrahydronaphthalene-2-carbonyl)oxazole-5-carboxylate]
Ki [1, 3]: 2.9 nM

Structure (SMILES): N#Cc1cnc(C(=O)C2CCc3cc(OCc4ccccc4)ccc3C2)o1 (single isomer, unassigned) [(S)-17, 2-(6-(Benzyloxy)-1,2,3,4-tetrahydronaphthalene-2-carbonyl)oxazole-5-carbonitrile]
Ki [1, 3]: 3.2 nM

Structure (SMILES): O=C(c1ncc(-c2ccccn2)o1)C1CCc2cc(OCc3ccccc3)ccc2C1 (single isomer, unassigned) [(S)-18, (6-(Benzyloxy)-1,2,3,4-tetrahydronaphthalen-2-yl)(5-(pyridin-2-yl)oxazol-2-yl)methanone]
Ki [1, 3]: 3.2 nM

Structure (SMILES): COC(=O)c1cccc(-c2cnc(C(=O)C3CCc4cc(OCc5ccccc5)ccc4C3)o2)n1 (single isomer, unassigned) [(S)-19, Methyl 6-(2-(6-(Benzyloxy)-1,2,3,4-tetrahydronaphthalene-2-carbonyl)oxazol-5-yl)picolinate]
Ki [1, 3]: 18 nM

Structure (SMILES): O=C(O)c1cccc(-c2cnc(C(=O)C3CCc4cc(OCc5ccccc5)ccc4C3)o2)n1 (single isomer, unassigned) [(S)-20, 6-(2-(6-(Benzyloxy)-1,2,3,4-tetrahydronaphthalene-2-carbonyl)oxazol-5-yl)picolinic acid]
Ki [1, 3]: 34 nM

Structure (SMILES): O=C(c1ncco1)C1Cc2ccc(-c3ccccc3)cc2C1 (single isomer, unassigned) [(S)-22, Oxazol-2-yl(5-phenylindan-2-yl)methanone]
Ki [1, 4]: 27 nM

Structure (SMILES): O=C(c1ncc(-c2ccccn2)o1)C1Cc2ccc(-c3ccccc3)cc2C1 (single isomer, unassigned) [(S)-23, (5-Phenylindan-2-yl)-(5-(pyridin-2-yl)oxazol-2-yl)methanone]
Ki [1, 4]: 1.9 nM

Structure (SMILES): O=C(c1ncco1)C1Cc2ccc(Oc3ccccc3)cc2C1 (single isomer, unassigned) [(S)-26, Oxazol-2-yl(5-phenoxyindan-2-yl)methanone]
Ki [1, 4]: 10 nM

Structure (SMILES): O=C(c1ncc(-c2ccccn2)o1)C1Cc2ccc(Oc3ccccc3)cc2C1 (single isomer, unassigned) [(S)-27, (5-Phenoxyindan-2-yl)(5-(pyridin-2-yl)oxazol-2-yl)methanone]
Ki [1, 4]: 2.1 nM

Structure (SMILES): COC(=O)c1cccc(-c2cnc(C(=O)C3Cc4ccc(Oc5ccccc5)cc4C3)o2)n1 (single isomer, unassigned) [(S)-28]
Ki [1, 4]: 98 nM

Structure (SMILES): O=C(O)c1cccc(-c2cnc(C(=O)C3Cc4ccc(Oc5ccccc5)cc4C3)o2)n1 (single isomer, unassigned) [(S)-29, 6-(2-(5-Phenoxyindane-2-carbonyl)oxazol-5-yl)picolinic acid]
Ki [1, 4]: 71 nM

Structure (SMILES): O=C(c1ncc(-c2ccccn2)o1)C1Cc2ccc(OCc3ccccc3)cc2C1 (single isomer, unassigned) [(S)-31, (5-(Benzyloxy)indan-2-yl)(5-(pyridin-2-yl)oxazol-2-yl)methanone]
Ki [1, 4]: 1.4 nM

Structure (SMILES): COC(=O)c1cccc(-c2cnc(C(=O)C3Cc4ccc(OCc5ccccc5)cc4C3)o2)n1 (single isomer, unassigned) [(S)-32, Methyl 6-(2-(5-(Benzyloxy)indane-2-carbonyl)oxazol-5-yl)picolinate]
Ki [1, 4]: 5.8 nM

Structure (SMILES): O=C(O)c1cccc(-c2cnc(C(=O)C3Cc4ccc(OCc5ccccc5)cc4C3)o2)n1 (single isomer, unassigned) [(S)-33, 6-(2-(5-(Benzyloxy)indane-2-carbonyl)oxazol-5-yl)picolinic acid]
Ki [1, 4]: 51 nM

Structure (SMILES): O=C(c1nnco1)C1CCc2cc(Oc3ccccc3)ccc2C1 (single isomer, unassigned) [(S)-34, (1,3,4-Oxadlazol-2-yl)(6-phenoxy-1,2,3,4-tetrahydronaphthalen-2-yl)methanone]
Ki [1, 5]: 0.5 nM

Structure (SMILES): COC(=O)c1nnc(C(=O)C2CCc3cc(Oc4ccccc4)ccc3C2)o1 (single isomer, unassigned) [(S)-35, Methyl 5-(6-Phenoxy-1,2,3,4-tetrahydronaphthalene-2-carbonyl)-[1,3,4]oxadiazole-2-carboxylate]
Ki [1, 5]: 1.5 nM

Structure (SMILES): O=C(c1nnc(-c2ccccn2)o1)C1CCc2cc(Oc3ccccc3)ccc2C1 (single isomer, unassigned) [(S)-36, (6-Phenoxy-1,2,3,4-tetrahydronaphthalen-2-yl)(5-(pyridin-2-yl)-1,3,4-oxadiazol-2-yl)methanone]
Ki [1, 5]: 1 nM

Structure (SMILES): O=C(c1ncco1)C1CCc2ccccc2C1 (single isomer, unassigned) [(S)-37, Oxazol-2-yl(1,2,3,4-tetrahydronaphthalen-2-yl)methanone]
Ki [1, 5]: 5100 nM

Structure (SMILES): O=C(c1ncc(-c2ccccn2)o1)C1CCc2ccccc2C1 (single isomer, unassigned) [(S)-38, (5-(Pyridin-2-yl)oxazol-2-yl)(1,2,3,4-tetrahydronaphthalen-2-yl)methanone]
Ki [1, 5]: 430 nM

potency of more active (S)-enantiomer over (R)-enantiomer [1]: ca. 200 fold
Structure (SMILES): O=C(c1ncc(I)o1)C1CCc2cc(OCc3ccccc3)ccc2C1 (stereo not shown) [Compound 21, (6-(Benzyloxy)-1,2,3,4-tetrahydronaphthalen-2-yl)(5-iodooxazol-2-yl)methanone]

Structure (SMILES): O=C(c1ncc(-c2ccccn2)o1)C1Cc2ccc(Oc3ccccc3)cc2C1 (stereo not shown) [Compound 27, (5-Phenoxyindan-2-yl)(5-(pyridin-2-yl)oxazol-2-yl)methanone]
Brain 2-AG [2]: 11 pmol/g
Brain AA [2]: 190 pmol/g
Brain AEA [2]: 24 pmol/g
Brain PEA [2]: 800 pmol/g
Brain 2-AG (fold increase) [2]: 0.8 fold increase
Brain AA (fold increase) [2]: 0.9 fold increase
Brain AEA (fold increase) [2]: 3.0 fold increase
Brain PEA (fold increase) [2]: 7.4 fold increase

Structure (SMILES): O=C(O)c1cccc(-c2cnc(C(=O)C3Cc4ccc(Oc5ccccc5)cc4C3)o2)n1 (stereo not shown) [Compound 29, 6-(2-(5-Phenoxyindane-2-carbonyl)oxazol-5-yl)picolinic acid]
Brain 2-AG [2]: 12 pmol/g
Brain AA [2]: 172 pmol/g
Brain AEA [2]: 8 pmol/g
Brain PEA [2]: 131 pmol/g
Brain 2-AG (fold increase) [2]: 0.9 fold increase
Brain AA (fold increase) [2]: 0.8 fold increase
Brain AEA (fold increase) [2]: 1.0 fold increase
Brain PEA (fold increase) [2]: 1.2 fold increase

Structure (SMILES): O=C(c1ncco1)C1CCc2ccccc2C1 (stereo not shown) [Compound 37, Oxazol-2-yl(1,2,3,4-tetrahydronaphthalen-2-yl)methanone]
improvement in potency relative to the corresponding oxazole 9 ([1]; (S)-enantiomer): 4-5 fold
Ki ([1]; Ki, first of the two enantiomers, text b169, enantiomer distinction 5.1 vs 12 μM): 5100 nM
Ki ([1]; Ki, second of the two enantiomers, text b169, enantiomer distinction 5.1 vs 12 μM): 12000 nM
potency of more active (S)-enantiomer over (R)-enantiomer [1]: ca. 2 fold

Structure (SMILES): O=C(c1ncc(-c2ccccn2)o1)C1CCc2ccccc2C1 (stereo not shown) [Compound 38, (5-(Pyridin-2-yl)oxazol-2-yl)(1,2,3,4-tetrahydronaphthalen-2-yl)methanone]
Ki relative to the FAAH inhibitor lacking the conformational constraints (Ki=200 nM) [1]: 2 fold
Ki ([1]; Ki): 430 nM

Structure (SMILES): O=C(c1ncco1)C1Cc2ccccc2C1 [Compound 39, (Indan-2-yl)(oxazol-2-yl)methanone]
Ki ([1]; Table 4, meso indane derivatives without aryl substituent, read-out: Ki): 7100 nM

Structure (SMILES): O=C(c1ncc(-c2ccccn2)o1)C1Cc2ccccc2C1 [Compound 40, (Indan-2-yl)(5-(pyridin-2-yl)oxazol-2-yl)methanone]
Ki relative to the FAAH inhibitor lacking the conformational constraints (Ki=200 nM) [1]: 5 fold
Ki ([1]; read-out: Ki): 1100 nM
